In PubChem BioAssay (NCI):
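Interpolation was linear, between the two tested concentrations surrounding the appropriate level; five concentrations were tested over 48 hours in 96-well plates. TGI is the concentration that stops growth completely.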

How the values were obtained:
Experiment in all cases: inhibition of tumour cell growth, NCI panel, 48 h
DMS 114 small cell lung = system: DMS 114 small cell lung
HT29 colon = system: HT29 colon
U251 CNS = system: U251 CNS
EKVX NSCLC = system: EKVX NSCLC
SF-295 CNS = system: SF-295 CNS
SW-620 colon = system: SW-620 colon
COLO 205 colon = system: COLO 205 colon
UACC-257 melanoma = system: UACC-257 melanoma
HL-60(TB) leukemia = system: HL-60(TB) leukemia
LOX IMVI melanoma = system: LOX IMVI melanoma
OVCAR-5 ovarian = system: OVCAR-5 ovarian
A549 NSCLC = system: A549 NSCLC
NCI-H460 lung = system: NCI-H460 lung
KM12 colon = system: KM12 colon
UO-31 renal = system: UO-31 renal
HCC-2998 colon = system: HCC-2998 colon
RPMI-8226 leukemia = system: RPMI-8226 leukemia
RXF-631 renal = system: RXF-631 renal
IGROV1 ovarian = system: IGROV1 ovarian
NCI-H23 lung = system: NCI-H23 lung
SNB-19 CNS = system: SNB-19 CNS
SK-MEL-28 melanoma = system: SK-MEL-28 melanoma
SF-539 CNS = system: SF-539 CNS
MALME-3M melanoma = system: MALME-3M melanoma
SN12C renal = system: SN12C renal
SK-OV-3 ovarian = system: SK-OV-3 ovarian
SNB-78 CNS = system: SNB-78 CNS
UACC-62 melanoma = system: UACC-62 melanoma
SK-MEL-2 melanoma = system: SK-MEL-2 melanoma
LXFL 529 NSCLC = system: LXFL 529 NSCLC
DMS 273 small cell lung = system: DMS 273 small cell lung
M14 melanoma = system: M14 melanoma
OVCAR-4 ovarian = system: OVCAR-4 ovarian
HOP-92 NSCLC = system: HOP-92 NSCLC
CCRF-CEM leukemia = system: CCRF-CEM leukemia
CAKI-1 renal = system: CAKI-1 renal
HCT-116 colon = system: HCT-116 colon
K-562 leukemia = system: K-562 leukemia
SNB-75 CNS = system: SNB-75 CNS
OVCAR-8 ovarian = system: OVCAR-8 ovarian
TK-10 renal = system: TK-10 renal
A498 renal = system: A498 renal
ACHN renal = system: ACHN renal
RXF 393 renal = system: RXF 393 renal
HOP-62 NSCLC = system: HOP-62 NSCLC
M19-MEL melanoma = system: M19-MEL melanoma
DLD-1 colon = system: DLD-1 colon
OVCAR-3 ovarian = system: OVCAR-3 ovarian
NCI-H226 lung = system: NCI-H226 lung
SF-268 CNS = system: SF-268 CNS
NCI-H522 lung = system: NCI-H522 lung
SK-MEL-5 melanoma = system: SK-MEL-5 melanoma
HOP-18 NSCLC = system: HOP-18 NSCLC
HCT-15 colon = system: HCT-15 colon
MOLT-4 leukemia = system: MOLT-4 leukemia
KM20L2 colon = system: KM20L2 colon
786-0 renal = system: 786-0 renal

Measured: TGI

O=Cc1c(O)c(C(=O)Nc2ccc3[nH]c(=O)[nH]c3c2)cc2ccccc12
> 100 µM: all assays above

CN1C(=O)C2C(C1=O)C1(O)c3ccccc3C2(N)c2ccccc21 (stereo not given)
not listed: RPMI-8226 leukemia | LXFL 529 NSCLC | NCI-H522 lung | KM20L2 colon
> 100 µM: all other assays above
